Test results reported in US12465603B2, “Phthalazinone based modulators for the treatment of disease” (Soley Therapeutics, Inc., priority 2022, dated 2025).

Experiments:
[1] = test system: PA1 (ECACC, 90013101) cells; test: Cell viability assay (Cell Titre Glo, 72 hours) in PA1 cells; type: cell-based; conditions: Homo sapiens, PA-1
Experimental: (§1) Example 31: Cell Viability Assays
(§2) Phthalazinone based modulators as described herein were dispensed into 384 well CulturPlates™ (PerkinElmer) using Echo 555 acoustic dispensing in 10-point dose response curves at a final top concentration of 30 μM following a 1 in 3 dilution series. A2058 (ATCC, CRL-11147) or PA1 (ECACC, 90013101) cells were added directly to a compound at a density of 5000 cells per well in a final volume of 50 μL and incubated for 72 hours at 37° C., 5% CO2. Viability was assessed using Cell Titre Glo® (Promega) according to the manufacturer's instructions (25 μL per well) and IC50 curves were generated for each inhibitor using IDBS ActivityBase data analysis software.

[2] = test system: A2058 (ATCC, CRL-11147) cells; test: Cell viability assay (Cell Titre Glo, 72 hours) in A2058 cells; type: cell-based; conditions: Homo sapiens
Experimental: as §1, §2

Compound | IC50 [1] | IC50 [2]
Cc1ccc(C#N)cc1N1CCN(C(=O)c2nn(C)c(=O)c3ccccc23)CC1 [Compound 67] | ≤ 1000 nM | ≤ 1000 nM
Cc1cc(C#N)cc(N2CCN(C(=O)c3nn(C)c(=O)c4ccccc34)CC2)c1 [Compound 68] | ≤ 1000 nM | ≤ 1000 nM
Cn1nc(C(=O)N2CCN(c3cccc(S(C)(=O)=O)c3)CC2)c2ccccc2c1=O [Compound 69] | 1000 to 10000 nM | 1000 to 10000 nM
COc1ccc(C#N)cc1N1CCN(C(=O)c2nn(C)c(=O)c3ccccc23)CC1 [Compound 70] | ≤ 1000 nM | ≤ 1000 nM
Cn1nc(C(=O)N2CCN(c3ccncc3C3CC3)CC2)c2ccccc2c1=O [Compound 71] | ≤ 1000 nM | ≤ 1000 nM
COc1ccnc(N2CCN(C(=O)c3nn(C)c(=O)c4ccccc34)CC2)n1 [Compound 72] | 1000 to 10000 nM | 1000 to 10000 nM
Cc1cncc(N2CCN(C(=O)c3nn(C)c(=O)c4ccccc34)CC2)c1 [Compound 73] | 1000 to 10000 nM | 1000 to 10000 nM
Cc1cc(N2CCN(C(=O)c3nn(C)c(=O)c4ccccc34)CC2)ccn1 [Compound 74] | > 20000 nM | > 20000 nM
COc1ncc(F)cc1N1CCN(C(=O)c2nn(C)c(=O)c3ccccc23)CC1 [Compound 75] | ≤ 1000 nM | ≤ 1000 nM
Cn1nc(C(=O)N2CCN(c3ccnc(C4CC4)c3)CC2)c2ccccc2c1=O [Compound 76] | 1000 to 10000 nM | 10000 to 20000 nM
COc1ncc(C)cc1N1CCN(C(=O)c2nn(C)c(=O)c3ccccc23)CC1 [Compound 77] | 1000 to 10000 nM | 1000 to 10000 nM
COc1cnc(C)cc1N1CCN(C(=O)c2nn(C)c(=O)c3ccccc23)CC1 [Compound 78] | 1000 to 10000 nM | 1000 to 10000 nM
CN1CCc2cccc(N3CCN(C(=O)c4nn(C)c(=O)c5ccccc45)CC3)c21 [Compound 79] | 10000 to 20000 nM | 10000 to 20000 nM
Cn1nc(C(=O)N2CCN(c3cccc4c3OC(F)(F)O4)CC2)c2ccccc2c1=O [Compound 80] | ≤ 1000 nM | ≤ 1000 nM
CCn1nc(C(=O)N2CCN(c3cccc(C(F)(F)F)c3)CC2)c2ccccc2c1=O [Compound 81, 2-ethyl-4-(4-(3-(trifluoromethyl)phenyl)piperazine-1-carbonyl)phthalazin-1(2H)-one] | ≤ 1000 nM | 1000 to 10000 nM
CCn1nc(C(=O)N2CCN(c3cccc(F)n3)CC2)c2ccccc2c1=O [Compound 82] | 10000 to 20000 nM | > 20000 nM
CCn1nc(C(=O)N2CCN(c3cncnc3OC)CC2)c2ccccc2c1=O [Compound 83] | ≤ 1000 nM | 1000 to 10000 nM
CCn1nc(C(=O)N2CCN(c3cccc(OC)n3)CC2)c2ccccc2c1=O [Compound 84] | ≤ 1000 nM | ≤ 1000 nM
CCn1nc(C(=O)N2CCN(c3cc(OC)ccn3)CC2)c2ccccc2c1=O [Compound 85] | 1000 to 10000 nM | 1000 to 10000 nM
CCn1nc(C(=O)N2CCN(c3ncc(C#N)cc3F)CC2)c2ccccc2c1=O [Compound 86] | > 20000 nM | > 20000 nM
CCn1nc(C(=O)N2CCN(c3ncc(F)cc3C)CC2)c2ccccc2c1=O [Compound 87] | > 20000 nM | > 20000 nM
CCn1nc(C(=O)N2CCN(c3ncc(F)cc3C3CC3)CC2)c2ccccc2c1=O [Compound 88] | ≤ 1000 nM | ≤ 1000 nM
CCn1nc(C(=O)N2CCN(c3cc(OC)c(Br)cn3)CC2)c2ccccc2c1=O [Compound 89] | > 20000 nM | > 20000 nM
CCn1nc(C(=O)N2CCN(c3cccc4c3oc(=O)n4C)CC2)c2ccccc2c1=O [Compound 90] | > 20000 nM | > 20000 nM
CCn1nc(C(=O)N2CCN(c3ncc(C#N)cc3C)CC2)c2ccccc2c1=O [Compound 91] | > 20000 nM | > 20000 nM

Compound | IC50 [1] | IC50 [2]
CCn1nc(C(=O)N2CCN(c3ccc(F)c4ccoc34)CC2)c2ccccc2c1=O [Compound 92] | ≤ 1000 nM | ≤ 1000 nM
CCn1nc(C(=O)N2CCN(c3ncc(C#N)cc3OC)CC2)c2ccccc2c1=O [Compound 93] | 1000 to 10000 nM | 1000 to 10000 nM
CCn1nc(C(=O)N2CCN(c3nnccc3OC)CC2)c2ccccc2c1=O [Compound 94] | 1000 to 10000 nM | 10000 to 20000 nM
CCn1nc(C(=O)N2CCN(c3ccnc4ccoc34)CC2)c2ccccc2c1=O [Compound 95] | ≤ 1000 nM | ≤ 1000 nM
CCn1nc(C(=O)N2CCN(c3cccc4c3OC(C)(C)C4)CC2)c2ccccc2c1=O [Compound 96] | ≤ 1000 nM | 1000 to 10000 nM
CCn1nc(C(=O)N2CCN(c3cccc4oc(=O)[nH]c34)CC2)c2ccccc2c1=O [Compound 97] | 10000 to 20000 nM | > 20000 nM
CCn1nc(C(=O)N2CCN(c3ncncc3OC)CC2)c2ccccc2c1=O [Compound 98] | 1000 to 10000 nM | 1000 to 10000 nM
CCn1nc(C(=O)N2CCN(c3nccnc3OC)CC2)c2ccccc2c1=O [Compound 99] | 1000 to 10000 nM | 1000 to 10000 nM
CCn1nc(C(=O)N2CCN(c3ccccc3F)CC2)c2ccccc2c1=O [Compound 100] | ≤ 1000 nM | 1000 to 10000 nM
CCn1nc(C(=O)N2CCN(c3ccccc3OC)CC2)c2ccccc2c1=O [Compound 101] | ≤ 1000 nM | ≤ 1000 nM
CCn1nc(C(=O)N2CCN(c3ccccc3C)CC2)c2ccccc2c1=O [Compound 102] | ≤ 1000 nM | ≤ 1000 nM
CCn1nc(C(=O)N2CCN(c3ccccc3C3CC3)CC2)c2ccccc2c1=O [Compound 103] | ≤ 1000 nM | ≤ 1000 nM
CCn1nc(C(=O)N2CCN(c3ccc(C(F)(F)F)cc3C)CC2)c2ccccc2c1=O [Compound 104] | 1000 to 10000 nM | 1000 to 10000 nM
CCn1nc(C(=O)N2CCN(c3ccccc3Cl)CC2)c2ccccc2c1=O [Compound 105] | ≤ 1000 nM | ≤ 1000 nM
CCn1nc(C(=O)N2CCN(c3ncccc3C)CC2)c2ccccc2c1=O [Compound 106] | 1000 to 10000 nM | 1000 to 10000 nM
CCn1nc(C(=O)N2CCN(c3ncccc3F)CC2)c2ccccc2c1=O [Compound 107] | > 20000 nM | > 20000 nM
CCn1nc(C(=O)N2CCN(c3ncccc3C3CC3)CC2)c2ccccc2c1=O [Compound 108] | ≤ 1000 nM | ≤ 1000 nM
CCn1nc(C(=O)N2CCN(c3cc(F)ccn3)CC2)c2ccccc2c1=O [Compound 109] | 1000 to 10000 nM | 1000 to 10000 nM
CCn1nc(C(=O)N2CCN(c3cc(C)ccn3)CC2)c2ccccc2c1=O [Compound 110] | 1000 to 10000 nM | 1000 to 10000 nM
CCn1nc(C(=O)N2CCN(c3ccc(OC)nn3)CC2)c2ccccc2c1=O [Compound 111] | > 20000 nM | > 20000 nM
CCn1nc(C(=O)N2CCN(c3cc(OC)cnn3)CC2)c2ccccc2c1=O [Compound 112] | > 20000 nM | > 20000 nM
CCn1nc(C(=O)N2CCN(c3ncncc3C)CC2)c2ccccc2c1=O [Compound 113] | > 20000 nM | > 20000 nM
CCn1nc(C(=O)N2CCN(c3ncc(F)cc3OC)CC2)c2ccccc2c1=O [Compound 114] | ≤ 1000 nM | 1000 to 10000 nM
CCn1nc(C(=O)N2CCN(c3ccncc3C3CC3)CC2)c2ccccc2c1=O [Compound 115] | ≤ 1000 nM | ≤ 1000 nM
CCn1nc(C(=O)N2CCN(c3cccc(C4CC4)c3)CC2)c2ccccc2c1=O [Compound 116, 4-(4-(3-cyclopropylphenyl)piperazine-1-carbonyl)-2-ethylphthalazin-1(2H)-one] | ≤ 1000 nM | ≤ 1000 nM
